Literature values in patent US11980685B1, “Liquid pharmaceutical formulations of tafamidis” (TaP Pharmaceuticals, AG, priority 2022, dated 2024).
In brackets after ≈: the same amount, converted by molar mass. Like-named read-outs stand apart in the source and are kept apart here.

Columns and labels:
[1] = 20 mg in 3.0 mL, equilibrated 1 h, UHPLC

Row | Solubility (pH 2.6, 0.02M Acetate-phosphate buffer) [µg/mL] | Solubility (pH 5.3, 0.02M Acetate-phosphate buffer) [µg/mL] | Solubility (pH 6.3, 0.02M Acetate-phosphate buffer) [µg/mL] | Solubility (pH 7.0, 0.02M Acetate-phosphate buffer) [µg/mL] | Solubility (pH 7.6, 0.02M Acetate-phosphate buffer as printed) [µg/mL] | Solubility (pH 7.8, 0.02M Acetate-phosphate buffer) [µg/mL] | Solubility (pH 8.0, 0.02M Acetate-phosphate buffer) [µg/mL] | Solubility classification per the BCS criteria (statement of the NDA 212161 applicant on Table F) | Concentration of tafamidis in saturated solution (solubility) ([1]; FaSSIF) [µg/mL] | Concentration of tafamidis in saturated solution (solubility) ([1]; FeSSIF) [µg/mL] | Concentration of tafamidis in saturated solution (solubility) ([1]; SGF) [µg/mL] | Structure (SMILES)
1 | <2 | <2 | 2 (≈ 6.49 µM) | 15.8 (≈ 51.3 µM) | 17.5 (≈ 56.8 µM) | 72.8 (≈ 236 µM) | 140 (≈ 454 µM) | poorly soluble drug substance |  |  |  | O=C(O)c1ccc2nc(-c3cc(Cl)cc(Cl)c3)oc2c1 [Tafamidis, 2-(3,5-dichlorophenyl)-1,3-benzoxazole-6-carboxylic acid]
2 |  |  |  |  |  |  |  |  | 9.0 | 0.6 | 1.5 | O=C(O)c1ccc2nc(-c3cc(Cl)cc(Cl)c3)oc2c1 [′441 patent's tafamidis crystal form 1]
